# According to ChEMBL document CHEMBL4052627, “An overview of azoles targeting sterol 14α-demethylase for antileishmanial therapy” (Eur J Med Chem, 2017):
# pEC50, pIC50: −log10 of the molar value.
# Legend:
# Leishmania major [1] = assay: Antileishmanial activity against Leishmania major MHOM/SA/85/JISH118 promastigote forms after 44 hrs by Alamar Blue assay; type: functional; settings: MHOM/SA/85/JISH118, 44 h
# Leishmania major [2] = assay: Antileishmanial activity against Leishmania major MHOM/SA/85/JISH118 promastigote forms after 48 hrs by flow cytometric analysis; type: functional; settings: MHOM/SA/85/JISH118, 48 h
# Leishmania major [3] = assay: Antileishmanial activity against Leishmania major MHOM/SA/85/JISH118 axenic amastigote forms after 44 to 46 hrs by Alamar Blue assay; type: functional
# Leishmania tropica [4] = assay: Antileishmanial activity against Leishmania tropica amastigote forms infected in human monocyte-derived macrophage assessed as reduction in parasite infection at 2 ug/ml relative to control; type: functional; parameters: scale not given: the % may be the effect or the level left
# Leishmania donovani [5] = assay: Antileishmanial activity against Leishmania donovani MHOM/IN/80/Dd8 amastigote forms infected in mouse J774A.1 cells assessed as reduction in parasite infection after 72 hrs by luciferase reporter gene assay; type: functional, cell-based; settings: MHOM/IN/80/Dd8, J774.A1, 72 h
# Leishmania donovani [6] = assay: Antileishmanial activity against Leishmania donovani MHOM/IN/80/Dd8 amastigote forms infected in golden hamster assessed as inhibition in parasite infection in spleen at 50 mg/kg, ip administered for 5 days measured at day 7 post treatment by giemsa-staining based assay relative to control; type: functional; settings: MHOM/IN/80/Dd8, ip
# [7] = Selectivity index, ratio of CC50 for mouse J774A.1 cells to IC50 for Leishmania donovani MHOM/IN/80/Dd8 amastigote forms infected in mouse J774A.1 cells; type: toxicity, cell-based; settings: read-out: Ratio CC50/IC50
# Leishmania mexicana [8] = assay: Antileishmanial activity against Leishmania mexicana MHOM/MX/95/NAN1 axenic amastigote forms after 96 hrs by uptiblue-based spectrofluorimetric analysis; type: functional; settings: MHOM/MX/95/NAN1, 96 h
# Leishmania mexicana [9] = assay: Antileishmanial activity against Leishmania mexicana MHOM/MX/95/NAN1 amastigote forms infected in Balb/c mouse peritoneal macrophages after 48 hrs by May-Grunwald-Giemsa staining-based assay; type: functional; settings: MHOM/MX/95/NAN1, 48 h
# Leishmania major [10] = assay: (§1) Antileishmanial activity against Leishmania major MHOM/SEN/96/NAN2 stationary phase promastigote forms infected in BALB/c mouse assessed as reduction in parasite burden in spleen at 10 mg/kg, ip qd administered for 5 consecutive days measured after 50 days by May-Grunwald-Giemsa staining-based method relative to control; type: functional; parameters: scale not given: the % may be the effect or the level left
# Leishmania major [11] = assay: as §1, with “liver” for “spleen”; type: functional; parameters: scale not given: the % may be the effect or the level left
# Leishmania major [12] = assay: as §1, with “popliteal node” for “spleen”; type: functional; parameters: scale not given: the % may be the effect or the level left
# [13] = Cytotoxicity against mouse J774A.1 cells assessed as reduction in cell viability after 2 mins by trypan blue dye-light microscopic analysis; type: cell-based, J774.A1
# Leishmania major [14] = assay: Antileishmanial activity against Leishmania major MRHO/IR/75/ER amastigote forms infected in mouse J774A.1 cells after 60 hrs by giemsa-staining based light microscopic analysis; type: functional, cell-based; settings: J774.A1, 60 h
# Leishmania major [15] = assay: Antileishmanial activity against Leishmania major MRHO/IR/75/ER promastigote forms after 72 hrs by MTT assay; type: functional
# Leishmania braziliensis [16] = assay: Antileishmanial activity against Leishmania braziliensis MHOM/BR/75/M2903 promastigotes forms in presence of terbinafine by trypan blue-staining based light microscopy; type: functional
# Leishmania chagasi [17] = assay: Antileishmanial activity against Leishmania infantum chagasi MHOM/BR/1972/LD promastigote forms infected in golden hamster after 48 hrs by Alamar Blue assay; type: functional
# [18] = Cytotoxicity against mouse NCTC-929 cells assessed as reduction in cell viability after 48 hrs by Alamar Blue assay; type: cell-based; settings: NCTC-929, 48 h
# Leishmania chagasi [19] = assay: Antileishmanial activity against Leishmania infantum chagasi MHOM/BR/1972/LD amastigote forms infected in BALB/c mouse macrophage after 120 hrs by giemsa-staining based light microscopic analysis; type: functional
# Leishmania donovani [20] = assay: Leishmanicidal activity against Leishmania donovani 1S MHOM/SD/00/1S-2D promastigote forms after 18 hrs by indirect microscopic analysis; type: functional
# Leishmania amazonensis [21] = assay: Leishmanicidal activity against Leishmania amazonensis JOSEPHA promastigote forms after 18 hrs by indirect microscopic analysis; type: functional
# Leishmania major [22] = assay: Leishmanicidal activity against Leishmania major KK promastigote forms after 18 hrs by indirect microscopic analysis; type: functional
# Leishmania mexicana [23] = assay: Leishmanicidal activity against Leishmania mexicana 68 promastigote forms after 18 hrs by indirect microscopic analysis; type: functional; settings: Leishmania mexicana, 68, 18 h
# Leishmania mexicana [24] = assay: Leishmanicidal activity against Leishmania mexicana 390 promastigote forms after 18 hrs by indirect microscopic analysis; type: functional; settings: Leishmania mexicana, 390, 18 h
# Leishmania panamensis [25] = assay: Leishmanicidal activity against Leishmania panamensis LS94 promastigote forms after 18 hrs by indirect microscopic analysis; type: functional; settings: LS94, 18 h
# Leishmania panamensis [26] = assay: Leishmanicidal activity against Leishmania panamensis L334 promastigotes forms after 18 hrs by indirect microscopic analysis; type: functional; settings: L334, 18 h
# Leishmania amazonensis [27] = assay: Antileishmanial activity against Leishmania amazonensis LV78 promastigotes forms after 8 days; type: functional; settings: LV78, 192 h
# Leishmania major [28] = assay: Antileishmanial activity against Leishmania major MHOM/SN/74/Seidman promastigote forms after 8 days; type: functional; settings: 192 h
# Leishmania donovani [29] = assay: Antileishmanial activity against Leishmania donovani […] promastigote forms after 8 days; type: functional; settings: 192 h
# Leishmania major [30] = assay: Antileishmanial activity against Leishmania major infected in human assessed as healing of lesions at 200 mg/day, po administered for 6 weeks (reference value: 34%); type: functional
# Leishmania braziliensis [31] = assay: Antileishmanial activity against Leishmania (Viannia) braziliensis infected in human assessed as cure rate at 5 to 8 mg/kg/day, po for 4 weeks; type: functional
# Leishmania major [32] = assay: Antileishmanial activity against wild type Leishmania major LV39 Rho/SU/59/P promastigote forms after 48 hrs; type: functional
# Leishmania major [33] = assay: Antileishmanial activity against Leishmania major LV39 Rho/SU/59/P promastigote forms harboring C14DM null mutant after 48 hrs; type: functional
# Leishmania tropica [34] = assay: Antileishmanial activity against Leishmania tropica amastigote forms infected in human monocyte-derived macrophage assessed as reduction in parasite infection at 15 ug/ml relative to control; type: functional; parameters: scale not given: the % may be the effect or the level left
# Leishmania mexicana [35] = assay: Antileishmanial activity against Leishmania mexicana Walter Reed 227 promastigote forms assessed as reduction in promastigotes sterol biosynthesis at 10 nM after 24 hrs in presence of [2-14C]mevalonate by liquid scintillation spectrometry analysis relative to control; type: functional; parameters: scale not given: the % may be the effect or the level left
# Leishmania amazonensis [36] = assay: Antileishmanial activity against Leishmania amazonensis LV78 axenic amastigote forms after 8 days; type: functional; settings: LV78, 192 h
smiles,measurement,setting,value
Cc1ccc(OCCCCn2ccnc2)c(Cl)c1,pEC50,Leishmania major [1],6.68
same,pEC50,Leishmania major [2],6.47
same,pEC50,Leishmania major [3],4.93
Clc1ccc([C@@]2(Cn3ccnc3)OC[C@H](COc3ccc(N4CCNCC4)cc3)O2)c(Cl)c1,Activity,Leishmania tropica [4],85%
Clc1cccc(CO/N=C2/c3cccc(Cl)c3CCC2Cn2ccnc2)c1 (stereo unspecified),pIC50,Leishmania donovani [5],5.63
same,inhibition in vivo at 50 mg/kg,Leishmania donovani [6],70%
same,selectivity ratio,[7],25.6
CCn1cc(C(c2ccc(Cl)cc2Cl)n2ccnc2)c2cc(Br)ccc21 (stereo unspecified),pIC50,Leishmania mexicana [8],5.36
same,pIC50,Leishmania mexicana [9],> 6.00
same,Activity,Leishmania major [10],98.9%
same,Activity,Leishmania major [11],79%
same,Activity,Leishmania major [12],49.9%
O/N=C1/c2ccccc2OC(c2ccc(Cl)cc2)C1n1ccnc1 (stereo unspecified),CC50 at 2 min,[13],355 µM
same,pIC50,Leishmania major [14],6.22
O/N=C1/c2ccccc2OC(c2cccc(Cl)c2)C1n1ccnc1 (stereo unspecified),pIC50,Leishmania major [15],4.58
O[C@](Cn1cncn1)(Cn1cnc(/C=C/c2ccc(OCC(F)(F)C(F)F)cc2)n1)c1ccc(F)cc1F,MIC,Leishmania braziliensis [16],0.03 µM
c1ccc(-c2ccc(C(c3ccccc3)n3ccnc3)cc2)cc1 (stereo unspecified) [BIFONAZOLE],pIC50,Leishmania chagasi [17],5.05
same,pIC50,[18],4.37 to 4.41
Clc1ccccc1C(c1ccccc1)(c1ccccc1)n1ccnc1 [CLOTRIMAZOLE],pIC50,Leishmania chagasi [17],5.55
same,pIC50,[18],4.37 to 4.41
Clc1ccc(COC(Cn2ccnc2)c2ccc(Cl)cc2Cl)cc1 (stereo unspecified) [ECONAZOLE],pIC50,Leishmania chagasi [17],5.27
same,pIC50,Leishmania chagasi [19],4.96
same,pIC50,[18],4.37 to 4.41
OC(Cn1cncn1)(Cn1cncn1)c1ccc(F)cc1F [FLUCONAZOLE],MIC,Leishmania donovani [20],104 µM
same,MIC,Leishmania amazonensis [21],104 µM
same,MIC,Leishmania major [22],104 µM
same,MIC,Leishmania mexicana [23],104 µM
same,MIC,Leishmania mexicana [24],104 µM
same,MIC,Leishmania panamensis [25],104 µM
same,MIC,Leishmania panamensis [26],104 µM
same,pIC50,Leishmania amazonensis [27],< 3.79
same,pIC50,Leishmania major [28],< 3.79
same,pIC50,Leishmania donovani [29],< 3.79
same,Activity,Leishmania major [30],79%
same,Activity,Leishmania braziliensis [31],75 - 100%
CCC(C)n1ncn(-c2ccc(N3CCN(c4ccc(OCC5COC(Cn6cncn6)(c6ccc(Cl)cc6Cl)O5)cc4)CC3)cc2)c1=O (stereo unspecified) [ITRACONAZOLE],pIC50,Leishmania major [32],6.40
same,pIC50,Leishmania major [33],5.70
CC(=O)N1CCN(c2ccc(OCC3COC(Cn4ccnc4)(c4ccc(Cl)cc4Cl)O3)cc2)CC1 (stereo unspecified) [KETOCONAZOLE],Activity,Leishmania tropica [34],85%
same,Activity,Leishmania mexicana [35],50%
same,MIC,Leishmania braziliensis [16],0.03 µM
same,pIC50,Leishmania amazonensis [27],5.45 to 6.26
same,pIC50,Leishmania major [28],5.45 to 6.26
same,pIC50,Leishmania donovani [29],5.45 to 6.26
same,pIC50,Leishmania amazonensis [36],5.50
same,IC50,Leishmania major [14],12.8 µg/mL
CC[C@@H]([C@H](C)O)n1ncn(-c2ccc(N3CCN(c4ccc(OC[C@@H]5CO[C@@](Cn6cncn6)(c6ccc(F)cc6F)C5)cc4)CC3)cc2)c1=O [POSACONAZOLE],MIC,Leishmania donovani [20],11.4 to 22.8 µM
same,MIC,Leishmania amazonensis [21],11.4 to 22.8 µM
same,MIC,Leishmania major [22],11.4 to 22.8 µM
same,MIC,Leishmania mexicana [23],11.4 to 22.8 µM
same,MIC,Leishmania mexicana [24],11.4 to 22.8 µM
same,MIC,Leishmania panamensis [25],11.4 to 22.8 µM
same,MIC,Leishmania panamensis [26],11.4 to 22.8 µM
C[C@@H](c1ncncc1F)[C@](O)(Cn1cncn1)c1ccc(F)cc1F [VORICONAZOLE],pIC50,Leishmania amazonensis [27],4.98 to 5.21
same,pIC50,Leishmania major [28],4.98 to 5.21
same,pIC50,Leishmania donovani [29],4.98 to 5.21
same,pIC50,Leishmania amazonensis [36],5.23
